{
  "source": "patent US20110008304A1",
  "about": "“USE OF CELLS TO FACILITATE TARGETED DELIVERY OF NANOPARTICLE THERAPIES” (KANSAS STATE UNIVERSITY RESEARCH FOUNDATION, priority 2007, published 2011)",
  "key": {"[1]": {"test_system": "MDA-MB-231 breast tumor cell line", "assay": "NCI 60 human tumor cell lines, SRB protein assay, MDA-MB-231", "type": "cell-based", "details": "SRB protein assay after 2 days, read-out: GI50 (growth inhibition at 50%)", "description": "(§1) An analog of AQ10, AQ9 (NSC 727286), has been evaluated by NCI's 60 human tumor cell lines using the SRB protein assay to estimate cell growth and viability after 2 days. […] AQ10 is less cytotoxic than AQ9 in L1210 and HL60 cell lines (Table 1).\n(§2) Similarly TT compounds such as TT24 were synthesized from TT2 and evaluated for their antitumor activities (Hua et al. 2004. Tetrandedron 60:10155-63, Hua et al. […], Hua et al. 2006. Anticancer Agents Med. Chem. 6:303-18, Wang et al. 2002. Cancer Lett. 188:73-83). Selective bromination of TT2 with N-bromosuccinimide (NBS) in DMF followed by addition of allylmethylamine and removal of the allyl protecting group with Pd(PPh3)4 afforded TT24. TT24 (NSC 727284-K), has been evaluated by NCI's 60 human tumor cell lines using the SRB protein assay to estimate cell growth and viability after 2 days."}, "[2]": {"test_system": "T47D breast tumor cell line", "assay": "NCI 60 human tumor cell lines, SRB protein assay, T47D", "type": "cell-based", "details": "SRB protein assay after 2 days, read-out: GI50 (growth inhibition at 50%)", "description": "as §2"}, "NCI/ADR-RES": {"test_system": "NCI/ADR-RES", "assay": "NCI 60 human tumor cell lines, SRB protein assay, NCI/ADR-RES", "type": "cell-based", "details": "NCI/ADR-RES breast, SRB protein assay after 2 days; read-out: GI50 (growth inhibition at 50%)", "description": "as §2"}, "L1210 cells": {"test_system": "L1210 cells", "assay": "Inhibition of L1210 cells by TT24", "type": "cell-based"}, "L1210 tumor cells": {"test_system": "L1210 tumor cells", "assay": "MTS:PMS viability assay at day 4 in vitro, L1210", "type": "cell-based", "details": "MTS:PMS assay at day 4 in vitro, means ± SD, n = 3"}, "HL-60 tumor cells": {"test_system": "HL-60 tumor cells", "assay": "MTS:PMS viability assay at day 4 in vitro, HL-60", "type": "cell-based", "details": "MTS:PMS assay at day 4 in vitro, means ± SD, n = 3"}, "LL/2 tumor cells": {"test_system": "LL/2 tumor cells", "assay": "MTS:PMS viability assay at day 4 in vitro, LL/2", "type": "cell-based", "details": "MTS:PMS assay at day 4 in vitro, means ± SD, n = 3"}, "Pan 02 cells": {"test_system": "Pan 02 cells", "assay": "Pan 02 cell viability, MTT assay", "type": "cell-based, mouse", "protocol": "Cell proliferation evaluation. The number of viable cells was evaluated by the MTT ([…]-2,5-diphenyl-tetrazolium bromide) assay (Roche Diagnostics GmbH, Germany) as well as hemocytometer and trypan blue exclusion analysis. Pan 02 cells were seeded in a 96 well plate. […] After incubation for 48 hrs, the medium was replaced with fresh medium containing 0.5 mg of MTT reagent per ml of medium and incubated for four hours at 37° C. Then, 100 μL of solubilization reagent was added to each well and incubated overnight at 37° C. Absorbance was measured in an ELISA plate reader at 550 nm, with the absorbance at 690 nm to correct for background, and viability was expressed as the percentage of untreated controls. To validate the MTT assay, trypan blue exclusion and hemocytometer counting assay was performed in parallel. All experiments were done in duplicate and were performed three times.\nStatistical analysis. All values are expressed as means ±SE. Values of untreated cells were taken as […]. Statistical analysis of all Pan 02 cell proliferation assays were analyzed using repeated measures of ANOVA. […] Statistical significance was considered if P<0.05."}, "[3]": {"assay": "Solubility in water / encapsulation", "type": "physicochemical"}, "HL-60": {"test_system": "HL-60", "assay": "NCI 60 human tumor cell lines, SRB protein assay, HL-60", "type": "cell-based", "details": "HL-60, SRB protein assay after 2 days; read-out: GI50 (growth inhibition at 50%)", "description": "as §1"}, "MOLT-4": {"test_system": "MOLT-4", "assay": "NCI 60 human tumor cell lines, SRB protein assay, MOLT-4", "type": "cell-based", "details": "MOLT-4, SRB protein assay after 2 days; read-out: GI50 (growth inhibition at 50%)", "description": "as §1"}, "SR": {"test_system": "SR", "assay": "NCI 60 human tumor cell lines, SRB protein assay, SR", "type": "cell-based", "details": "SRB protein assay after 2 days, read-out: GI50 (growth inhibition at 50%)", "description": "as §1"}, "K562": {"test_system": "K562", "assay": "NCI 60 human tumor cell lines, SRB protein assay, K562", "type": "cell-based", "details": "K562, SRB protein assay after 2 days; read-out: GI50 (growth inhibition at 50%)", "description": "as §1"}, "SN12 C renal": {"test_system": "SN12 C renal", "assay": "NCI 60 human tumor cell lines, SRB protein assay, SN12 C", "type": "cell-based", "details": "SRB protein assay after 2 days, read-out: GI50 (growth inhibition at 50%)", "description": "as §1"}, "HCT-116 colon": {"test_system": "HCT-116 colon", "assay": "NCI 60 human tumor cell lines, SRB protein assay, HCT-116", "type": "cell-based", "details": "SRB protein assay after 2 days, read-out: GI50 (growth inhibition at 50%)", "description": "as §1"}, "TK+UCMS cells": {"test_system": "TK+UCMS cells", "assay": "Cell number of TK+UCMS cells exposed to pro-drug", "type": "cell-based", "details": "dose range of 0 μM to 1600 μM", "description": "UCMS cells have been successfully engineered for stable expression of HSV-thymidine kinase. […] Thus, the suicide gene system is effective; after GCV administration to mice bearing tumors into which the UCMS-NG-TH (UCMS cells containing nanogels loaded with therapeutic agents) have trafficked, the NG-TH will be released into the tumor interstitium when the stem cells undergo apoptosis."}, "[4]": {"assay": "Anti-cancer effect of drug-loaded nanogels, test not specified", "type": "cell-based"}},
  "note": "Entries after “also recorded” stand apart in the source; their conditions may differ.",
  "data": [
    {"compound": "CNC1=CC(=O)C2=C(C1=O)C1C3=C(C(=O)C(Br)=C(OC)C3=O)C2c2ccccc21", "note": "(stereo not shown) [TT24]", "values": [
      {"measurement": "GI50", "setting": "[1]", "result": 1.41, "unit": "µM"},
      {"measurement": "GI50", "setting": "[2]", "result": 1.44, "unit": "µM"},
      {"measurement": "GI50", "setting": "NCI/ADR-RES", "result": 1.55, "unit": "µM"},
      {"measurement": "IC50", "setting": "L1210 cells", "result": 0.048, "unit": "µM"}
    ]},
    {"compound": "O=C1C=CC(=O)c2cc3cc(CO)ccc3cc21", "note": "[AQ10, 6-(hydroxymethyl)-1,4-anthracenedione]", "values": [
      {"measurement": "IC50", "setting": "L1210 tumor cells; Mus musculus, L1210, 96 h", "result": "0.037 ± 0.002", "unit": "µM"},
      {"measurement": "IC50", "setting": "HL-60 tumor cells; Homo sapiens, HL-60, 96 h", "result": "0.125 ± 0.007", "unit": "µM"},
      {"measurement": "IC50", "setting": "LL/2 tumor cells; LL/2, 96 h", "result": "0.494 ± 0.059", "unit": "µM"},
      {"measurement": "Effect of AQ10 dissolved in DMSO on Pan 02 cell viability / growth", "setting": "Pan 02 cells; MTT assay, 48 hrs, doses of 4.2, 8.4 and 16.8 μM, vs untreated and DMSO treated cells", "result": "significantly attenuated; also recorded: significant effect; also recorded: significantly decreased"},
      {"measurement": "Growth attenuation of Pan 02 cells, AQ10 in nanogel PEG-PEI relative to AQ10 alone (in DMSO)", "setting": "Pan 02 cells; comparison of AQ10-nanogel PEG-PEI with AQ10 alone", "result": "three to four times less effective"},
      {"measurement": "Solubility in water", "setting": "[3]", "result": "insoluble"}
    ]},
    {"compound": "O=C1C=CC(=O)c2cc3cc(CBr)ccc3cc21", "note": "[AQ9]", "values": [
      {"measurement": "IC50", "setting": "L1210 tumor cells", "result": "0.026 ± 0.001", "unit": "µM"},
      {"measurement": "IC50", "setting": "HL-60 tumor cells", "result": "0.079 ± 0.003", "unit": "µM"},
      {"measurement": "IC50", "setting": "LL/2 tumor cells", "result": "0.68 ± 0.087", "unit": "µM"},
      {"measurement": "GI50", "setting": "HL-60", "result": "< 0.01", "unit": "µM"},
      {"measurement": "GI50", "setting": "MOLT-4", "result": "< 0.01", "unit": "µM"},
      {"measurement": "GI50", "setting": "SR", "result": 0.0371, "unit": "µM"},
      {"measurement": "GI50", "setting": "K562", "result": 0.339, "unit": "µM"},
      {"measurement": "GI50", "setting": "SN12 C renal", "result": 0.379, "unit": "µM"},
      {"measurement": "GI50", "setting": "HCT-116 colon", "result": 0.606, "unit": "µM"},
      {"measurement": "GI50", "setting": "[1]", "result": 0.735, "unit": "µM"}
    ]},
    {"compound": "Nc1nc(O)c2ncn(COC(CO)CO)c2n1", "note": "[Ganciclovir]", "values": [
      {"measurement": "Cell number of TK+UCMS cells", "setting": "TK+UCMS cells", "result": "Decreased cell number"}
    ]},
    {"compound": "Triton", "values": [
      {"measurement": "Anti-cancer / antitumor effect", "setting": "[4]", "result": "significantly potentiated the anti-cancer effect"}
    ]}
  ]
}
